Measurements: paper PMC9127750, “Structure-based design of CDC42 effector interaction inhibitors for the treatment of cancer” (Cell reports, 2022)

Test system: WM3248 melanoma cells, 486 antibodies
Assay: Reverse phase protein arrays (RPPA);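 for RPPA ACC1.R.C: ratio of treated to vehicle (0 µM) normalized linear protein signal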;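 for RPPA AMPK.a2 pS345.R.V: ratio of treated to vehicle (0 µM) normalized linear protein signal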;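 for RPPA AMPKa pT172.R.C: ratio of treated to vehicle (0 µM) normalized linear protein signal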;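 for RPPA ASNS.R.V: ratio of treated to vehicle (0 µM) normalized linear protein signal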;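 for RPPA AceCS1.R.V: ratio of treated to vehicle (0 µM) normalized linear protein signal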;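 for RPPA Akt1.R.V: ratio of treated to vehicle (0 µM) normalized linear protein signal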;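 for RPPA Atg5.R.C: ratio of treated to vehicle (0 µM) normalized linear protein signal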;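 for RPPA Bim.R.V: ratio of treated to vehicle (0 µM) normalized linear protein signal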
Assay type: cell-based, Human
Conditions: 20 uM
Text: Pellets were snap frozen in liquid nitrogen and shipped to MD Anderson Cancer Center core RPPA facility for RPPA analysis (Table S5). Three biological replicates for each sample were generated.
Nomenclatures on the RPPA heatmaps: name_of_antibody.species_of_antibody.status_of_antibody. V - antibody validated; C - validation of antibody in progress; Q - antibody nonspecific; E – under evaluation; antibodies raised in M - mouse, G - goat, R - rabbit, or T - rat.

`CN(C)c1cccc(Nc2cc(-c3ccccc3)nc(C3CCNCC3)n2)c1` [ARN22089, N1,N1-dimethyl-N3-(6-phenyl-2-(piperidin-4-yl)pyrimidin-4-yl)benzene-1,3-diamine] was tested, and the “RPPA level HSP70.R.C” value (Average) was 1.160, the “RPPA level Hexokinase.I.R.C” value (Average) was 1.048 and the “RPPA level Hexokinase.II.R.V” value (Average) was 0.963. The “RPPA level Hif.1αR.C” value (Average) was 0.904, the “RPPA level Histone.H3.R.V” value (Average) was 5.173 and the “RPPA level Histone.H3_pS10.R.V” value (Average) was 2.026. For the same compound, the “RPPA level IDO.R.C” value (Average) was 1.014, the “RPPA level IGF1R_pY1135_Y1136.R.V” value (Average) was 0.992 and the “RPPA level IGFBP2.R.V” value (Average) was 0.899. The “RPPA level IGFBP3.M.V” value (Average) was 0.907, the “RPPA level IGFRb.R.C” value (Average) was 1.146 and the “RPPA level IL.6.R.C” value (Average) was 1.008. The “RPPA level IMP3.R.C” value (Average) was 1.016, the “RPPA level INPP4b.R.C” value (Average) was 0.905 and the “RPPA level IR.b.R.C” value (Average) was 1.149. For the same compound, the “RPPA level IRF.1.R.V” value (Average) was 0.954, the “RPPA level IRF.3.R.V” value (Average) was 0.948 and the “RPPA level IRS1.R.V” value (Average) was 1.105. For the same compound, the “RPPA level IRS2.R.C” value (Average) was 1.211, the “RPPA level JAB1.M.C” value (Average) was 0.972 and the “RPPA level JNK2.R.V” value (Average) was 0.925. The “RPPA level Jagged1.R.V” value (Average) was 1.085, the “RPPA level KAP1.R.V” value (Average) was 1.034 and the “RPPA level KEAP1.R.V” value (Average) was 0.960. The “RPPA level LAD1.R.V” value (Average) was 1.019, the “RPPA level LC3A.B.R.C” value (Average) was 1.119 and the “RPPA level LCN2.R.V” value (Average) was 1.461. The “RPPA level LDHA.R.C” value (Average) was 0.979, the “RPPA level Lck.R.V” value (Average) was 1.187 and the “RPPA level Lyn.R.V” value (Average) was 1.058. For the same compound, the “RPPA level MACC1.R.V” value (Average) was 1.008, the “RPPA level MAPK_pT202_Y204.R.C” value (Average) was 0.677 and the “RPPA level MCT4.R.V” value (Average) was 0.896. The “RPPA level MDM2_pS166.R.V” value (Average) was 1.230, the “RPPA level MEK1.R.V” value (Average) was 2.341 and the “RPPA level MEK2.R.V” value (Average) was 1.026. The “RPPA level MERIT40.R.C” value (Average) was 0.895, the “RPPA level MERIT40_pS29.R.V” value (Average) was 0.991 and the “RPPA level METTL3.R.V” value (Average) was 1.155. The “RPPA level MIF.R.C” value (Average) was 0.950, the “RPPA level MIG6.R.V” value (Average) was 0.989 and the “RPPA level MITF.R.V” value (Average) was 1.031. The “RPPA level MLH1.M.V” value (Average) was 0.887, the “RPPA level MLKL.R.V” value (Average) was 0.867 and the “RPPA level MMP2.R.V” value (Average) was 0.982. The “RPPA level MMP14.R.V” value (Average) was 1.321, the “RPPA level MR1.M.C” value (Average) was 1.026 and the “RPPA level MRAP.R.C” value (Average) was 1.126. The “RPPA level MSH2.R.C” value (Average) was 0.913, the “RPPA level MSH6.R.C” value (Average) was 1.164 and the “RPPA level MSI2.R.C” value (Average) was 1.099. The “RPPA level MTCO1.M.V” value (Average) was 1.031, the “RPPA level MTSS1.M.C” value (Average) was 0.981 and the “RPPA level Mcl.1.R.V” value (Average) was 0.838. For the same compound, the “RPPA level Melanoma.gp100.R.C” value (Average) was 1.007, the “RPPA level Merlin.R.C” value (Average) was 1.156 and the “RPPA level Midkine.R.V” value (Average) was 0.970. For the same compound, the “RPPA level Mitofusin.1.R.V” value (Average) was 0.952, the “RPPA level Mitofusin.2.R.V” value (Average) was 0.892 and the “RPPA level Mnk1.R.V” value (Average) was 0.957. For the same compound, the “RPPA level mTOR.R.V” value (Average) was 0.941, the “RPPA level mTOR_pS2448.R.C” value (Average) was 0.914 and the “c.Jun_pS73.R.V RPPA level” value (Average) was 0.970. For the same compound, the “c.Kit.R.V RPPA level” value (Average) was 1.141, the “c.Met_pY1234_Y1235.R.V RPPA level” value (Average) was 1.064 and the “cGAS.R.V RPPA level” value (Average) was 1.063. The “cdc2_pY15.R.C RPPA level” value (Average) was 1.101, the “cdc25C.R.V RPPA level” value (Average) was 0.883 and the “RPPA ACC1.R.C” value (D.1) was 0.904. For the same compound, the “RPPA ACC_pS79.R.V” value (D.1) was 1.061, the “RPPA ACLY_pS455.R.V” value (D.1) was 0.944 and the “RPPA ACSL1.R.V” value (D.1) was 1.054. For the same compound, the “RPPA ACVRL1.R.C” value (D.1) was 1.049, the “RPPA ADAR1.M.V” value (D.1) was 1.103 and the “RPPA ALKBH5.R.V” value (D.1) was 1.309. The “RPPA AMPK.a2_pS345.R.V” value (D.1) was 0.933, the “RPPA AMPKa.R.C” value (D.1) was 1.010 and the “RPPA AMPKa_pT172.R.C” value (D.1) was 1.099. For the same compound, the “RPPA ARID1A.R.C” value (D.1) was 2.023, the “RPPA ASNS.R.V” value (D.1) was 0.909 and the “RPPA ATM.R.V” value (D.1) was 0.752. The “RPPA ATP5A.M.C” value (D.1) was 1.056, the “RPPA ATP5H.R.V” value (D.1) was 1.455 and the “RPPA ATR.R.V” value (D.1) was 1.004. The “RPPA ATRX.R.C” value (D.1) was 0.831, the “RPPA AceCS1.R.V” value (D.1) was 1.063 and the “RPPA Akt1.R.V” value (D.1) was 0.712. The “RPPA Akt1_pS473.R.V” value (D.1) was 0.750, the “RPPA Akt2.R.V” value (D.1) was 0.746 and the “RPPA Akt2_pS474.R.C” value (D.1) was 0.847. The “RPPA Akt.R.V” value (D.1) was 0.884, the “RPPA Akt_pS473.R.V” value (D.1) was 0.449 and the “RPPA Ambra1_pS52.R.C” value (D.1) was 1.082. For the same compound, the “RPPA Annexin.I.M.V” value (D.1) was 0.994, the “RPPA Annexin.VII.M.V” value (D.1) was 1.057 and the “RPPA Atg4B.R.C” value (D.1) was 0.789. For the same compound, the “RPPA Atg5.R.C” value (D.1) was 1.025, the “RPPA Atg7.R.V” value (D.1) was 0.657 and the “RPPA Aurora.A.R.C” value (D.1) was 1.945. For the same compound, the “RPPA Aurora.ABC_pT288_pT232_pT198.R.C” value (D.1) was 0.842, the “RPPA Aurora.B.R.V” value (D.1) was 1.775 and the “RPPA Axl.R.V” value (D.1) was 0.594. The “RPPA B7.H3.R.C” value (D.1) was 0.996, the “RPPA B7.H4.R.C” value (D.1) was 0.838 and the “RPPA B.Raf.R.C” value (D.1) was 0.786. For the same compound, the “RPPA B.Raf_pS445.R.V” value (D.1) was 0.752, the “RPPA BAP1.M.V” value (D.1) was 1.051 and the “RPPA BCL2A1.R.V” value (D.1) was 0.907. The “RPPA BMK1.Erk5_pT218_Y220.R.V” value (D.1) was 1.016, the “RPPA BRCA1.M.C” value (D.1) was 1.165 and the “RPPA BRD4.R.V” value (D.1) was 1.680. For the same compound, the “RPPA Bad_pS112.R.V” value (D.1) was 0.993, the “RPPA Bak.R.C” value (D.1) was 1.006 and the “RPPA Bcl2.R.C” value (D.1) was 1.280. For the same compound, the “RPPA Bcl.xL.R.V” value (D.1) was 0.996, the “RPPA Beclin.R.C” value (D.1) was 1.111 and the “RPPA BiP.GRP78.M.C” value (D.1) was 1.051. The “RPPA Bid.R.C” value (D.1) was 1.015, the “RPPA Bim.R.V” value (D.1) was 1.098 and the “RPPA X4E.BP1.R.V” value (D.1) was 0.866. For the same compound, the “RPPA X4E.BP1_pS65.R.V” value (D.1) was 0.834, the “RPPA X4E.BP1_pT37_T46.R.V” value (D.1) was 0.918 and the “RPPA X14.3.3.zeta.R.V” value (D.1) was 1.017. For the same compound, the “RPPA X14.3.3βR.V” value (D.1) was 1.192, the “RPPA X53BP1.R.V” value (D.1) was 1.055 and the “RPPA b.Actin.R.C” value (D.1) was 1.239. For the same compound, the “RPPA b.Catenin.R.V” value (D.1) was 1.006, the “RPPA b.Catenin_pT41_S45.R.V” value (D.1) was 1.014 and the “RPPA c.Abl.R.V” value (D.1) was 0.991. For the same compound, the “RPPA c.Abl_pY412.R.C” value (D.1) was 0.922, the “RPPA c.IAP2.R.C” value (D.1) was 1.019 and the “RPPA PREX1.R.V Average” value (average of 3) was 0.950. For the same compound, the “RPPA PTEN.R.V Average” value (average of 3) was 1.082, the “RPPA PTPN12.R.V Average” value (average of 3) was 1.211 and the “RPPA PYGB.R.V Average” value (average of 3) was 1.080. The “RPPA PYGM.M.C Average” value (average of 3) was 0.983, the “RPPA Puma.R.C Average” value (average of 3) was 1.011 and the “RPPA RBM15.R.V Average” value (average of 3) was 0.995. For the same compound, the “RPPA RIP3.R.C Average” value (average of 3) was 0.996, the “RPPA RIP.R.C Average” value (average of 3) was 1.022 and the “RPPA RPA32.R.V Average” value (average of 3) was 1.078. The “RPPA RPA32_pS4_S8.R.C Average” value (average of 3) was 1.531, the “RPPA RRM1.R.C Average” value (average of 3) was 0.946 and the “RPPA RRM2.R.C Average” value (average of 3) was 0.922. The “RPPA RSK1.R.V Average” value (average of 3) was 0.941, the “RPPA RSK.R.C Average” value (average of 3) was 0.973 and the “RPPA Rab11.R.C Average” value (average of 3) was 1.059. For the same compound, the “RPPA Rad23A.R.C Average” value (average of 3) was 0.946, the “RPPA Rad50.R.V Average” value (average of 3) was 1.053 and the “RPPA Rad51.R.C Average” value (average of 3) was 0.940. The “RPPA Raptor.R.V Average” value (average of 3) was 0.967, the “RPPA Rb.M.Q Average” value (average of 3) was 0.977 and the “RPPA Rb_pS807_S811.R.V Average” value (average of 3) was 0.907. For the same compound, the “RPPA Rheb.M.C Average” value (average of 3) was 1.147, the “RPPA Rictor.R.C Average” value (average of 3) was 1.017 and the “RPPA Rictor_pT1135.R.V Average” value (average of 3) was 1.076. The “RPPA S6.M.V Average” value (average of 3) was 0.982, the “RPPA S6_pS235_S236.R.V Average” value (average of 3) was 0.339 and the “RPPA S6_pS240_S244.R.V Average” value (average of 3) was 0.423. For the same compound, the “RPPA SCD.M.V Average” value (average of 3) was 0.961, the “RPPA SDHA.R.V Average” value (average of 3) was 1.098 and the “RPPA SF2.R.V Average” value (average of 3) was 1.008. For the same compound, the “RPPA SFRP1.R.V Average” value (average of 3) was 0.986.
